Test results taken from patent US20090016959A1, “Delivery of antibodies to the central nervous system” (priority 2005, published 2009).
Residues, ends and D or L forms follow the SMILES beside them.

Legend:
[1] = tested on: bovine brain capillary endothelial cells; assay: In vitro BBB model, first level of selection: peptides in lower chamber visualized by Coomassie blue; format: in vitro ADME; conditions: first level of screening; 90 minutes at 37° C
Text: (§1) This BBCEC medium was changed three times a week.
The medium was changed twice a week.

[2] = tested on: bovine brain capillary endothelial cells; assay: In vitro BBB model, second screening level with iodinated peptides (cpm ratios); format: in vitro ADME
Description: as §1
Two iodo-beads were used for each protein.
Results were expressed as cpm ratios. […] The ratio between the number of [^125I]-peptide found in the bottom chamber of filters covered with or without endothelial cells was also calculated (+cells/−cells).

[3] = tested on: in vitro model of the blood brain barrier; assay: Transcytosis capacity across the in vitro BBB model (Pe); format: in vitro ADME, bovine
Description: as §1
Transcytosis capacity of Aprotinin-Paclitaxel conjugate was determined and is reported below in Table 5.

C[C@@H](O)[C@H](NC(=O)[C@H](CCCCN)NC(=O)[C@H](Cc1ccccc1)NC(=O)[C@H](CC(N)=O)NC(=O)[C@H](CC(N)=O)NC(=O)[C@H](CCCNC(=N)N)NC(=O)[C@H](CCCCN)NC(=O)CNC(=O)[C@H](CCCNC(=N)N)NC(=O)[C@H](CS)NC(=O)[C@H](CS)NC(=O)CNC(=O)[C@H](Cc1ccc(O)cc1)NC(=O)[C@H](Cc1ccccc1)NC(=O)[C@H](Cc1ccccc1)NC(=O)[C@@H](NC(=O)[C@@H](N)CS)[C@@H](C)O)C(=O)N[C@@H](CCC(=O)O)C(=O)N[C@@H](CCC(=O)O)C(=O)N[C@@H](Cc1ccc(O)cc1)C(=O)O [Peptide 71] (H-CTFFYGCCRGKRNNFKTEEY-OH; N-terminus and C-terminus assumed)
peptides detected in the lower side of the chambers by Coomassie blue staining [1]: detected in the lower side of the chambers
Ratios −cells/initial [2]: 0.072
Ratios +cells/−cells ([2]; [125I]-peptide in bottom chamber of filters with versus without endothelial cells): 0.37
Ratios +cells/initial ([2]; [125I]-peptide, cpm in bottom chamber / total cpm added, filter covered with endothelial cells, 90 minutes at 37° C): 0.027

aprotinin
Transcytosis (Pe 10^−3 cm/min) [3]: 0.2 10^−3 cm/min
